Among the data in paper PMC12627232 (MedComm, 2025) are IC50 and PD-L1 expression values, retold here.

Each structure is given as a SMILES string.

What is called IC50 is the point on the concentration scale where inhibition reaches its midpoint. High values mean weaker potency in that assay, low ones greater potency in that assay.

The target of one assay is T1, HDAC7 (Homo sapiens, UniProt Q8WUI4).
T1 construct: purchased BPS BIOSCIENCE Inc 50007
Briefly: HDACs enzymatic assay HDAC7. Format: biochemical. Conditions: Class IIa. As for the experimental part: HDACs enzymatic assays were conducted according to our previous work. […] Substrates (Boc‐Lys(acetyl)‐AMC for HeLa nuclear extract, Ac‐Leu‐Gly‐Lys (Tfa)‐AMC for HDAC4, HDAC5, HDAC6, HDAC7, HDAC9, HDAC10, and HDAC11, Boc‐Lys(triflouroacetyl)‐AMC for HDAC8 and Ac‐Leu‐Gly‐Lys(acetyl)‐AMC for HDAC1, HDAC2, HDAC3) were added to the mixture. The blank group was set to no enzyme or drug but contains substrates and the control group was set to no drug but contains substrates and enzymes to each 96‐well plate. After 30 min of incubation at 37°C, the mixture was terminated with 1 mg/mL trypsin and 3 µM TSA. After another 30 min, the fluorescence intensity was measured using a Varioskan plate reader at 360/460 nm. […] The inhibition curves and IC50 values were simulated and calculated using the log(inhibitor) versus response (three parameters) mode in GraphPad Prism software.

For the next assay, the system named is MDA-MB-231 cells. Briefly: PD-L1 expression by flow cytometry. Format: cell-based, human. As for the experimental part:
MDA‐MB‐231 cells in logarithmic growth phase were inoculated into six‐well plates with a cell density of 3 × 10^4 cells per well. After incubated at 37°C for 24 h, the original medium was abandoned and 900 µL complete medium was added, in which HitransG P infection solution was added. The virus dosage was calculated according to the formula and added to the cell. Virus volume = cell number × MOI value/virus titer. After incubated in the incubator at 37°C for 16 h, replace fresh complete medium. After that, the medium changed every 24 h. 48 h after infection, the cells were treated with or without compound at a concentration of 1 µM. After 48 h of culture, the fluorescence expression was observed under microscope, and the silencing effect of shHDAC1 was detected by Western Blot. The antibodies HDAC1 (Abmart; #T55154) and GAPDH (Beyotime; #AF2819) were used. The HDAC1‐siRNA lentivirus (shHDAC1) and negative control lentivirus (shCtrl) were obtained from Shanghai GeneChem Co., Ltd. (Shanghai, China).
Next, cells were digested into single‐cell suspension with trypsin, collected in a flow tube and washed with precooled 1 × PBS. Mouse serum was added to cells for 30 min at room temperature to block cells. Then the cells were incubated with anti‐human‐PD‐L1 (BioLegend; #329732) at 4°C for 1 h, and flow cytometry was performed with FACS Celesta (BD Biosciences, USA). […]

T1 sequence (Q8WUI4 whole entry): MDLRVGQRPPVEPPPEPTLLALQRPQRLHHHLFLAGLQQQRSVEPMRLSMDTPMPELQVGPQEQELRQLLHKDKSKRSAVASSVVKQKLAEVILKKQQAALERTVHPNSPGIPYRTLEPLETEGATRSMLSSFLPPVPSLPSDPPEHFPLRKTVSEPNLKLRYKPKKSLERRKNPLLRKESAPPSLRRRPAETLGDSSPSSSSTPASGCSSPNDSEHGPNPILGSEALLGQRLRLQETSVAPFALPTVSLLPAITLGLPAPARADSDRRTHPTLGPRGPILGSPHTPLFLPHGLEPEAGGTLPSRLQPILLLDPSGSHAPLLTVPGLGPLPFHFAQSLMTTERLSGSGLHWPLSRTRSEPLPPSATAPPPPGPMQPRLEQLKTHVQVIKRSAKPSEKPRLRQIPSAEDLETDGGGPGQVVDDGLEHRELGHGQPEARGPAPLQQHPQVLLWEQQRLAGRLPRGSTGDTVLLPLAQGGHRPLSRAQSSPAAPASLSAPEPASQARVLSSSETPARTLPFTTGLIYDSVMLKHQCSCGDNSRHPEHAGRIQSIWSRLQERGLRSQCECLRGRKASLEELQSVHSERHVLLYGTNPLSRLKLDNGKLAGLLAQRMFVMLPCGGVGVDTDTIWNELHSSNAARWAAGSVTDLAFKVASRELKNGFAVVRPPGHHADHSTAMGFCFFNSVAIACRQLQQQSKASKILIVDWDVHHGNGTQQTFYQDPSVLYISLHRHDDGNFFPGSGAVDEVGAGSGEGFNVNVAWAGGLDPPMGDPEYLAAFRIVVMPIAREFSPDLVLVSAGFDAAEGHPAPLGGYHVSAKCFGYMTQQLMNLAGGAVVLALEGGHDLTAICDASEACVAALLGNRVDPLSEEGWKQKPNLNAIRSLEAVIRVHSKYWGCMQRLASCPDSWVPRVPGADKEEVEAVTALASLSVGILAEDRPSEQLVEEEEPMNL

For `O=C(CCCCCCNC(=O)c1cc(OCCc2ccccc2)c2ccccc2n1)NO` [SDFZ-8], the IC50 on HDAC7 was greater than 10 µM. For the same compound, the PD-L1 expression entry with MDA-MB-231 cells is “increase”.
